Results published in patent US10555536B2, “Crop fortification, nutrition and crop protection composition” (priority 2017, dated 2020).

Test system: Groundnut
Test: Field trial on groundnut, protein content of seeds
Set-up: species or system Groundnut GG-2 variety
Details: in vivo
Excerpt: Field Trial Study of Treatments with Spirulina Compositions on Groundnut by Soil Drenching. Trials were laid in Ishvarpura (Idar) village, Dist.-Sabarkantha, Gujarat, India, to evaluate various compositions for treatment of Groundnut GG-2 variety. The plot size was 3828 m2. All the recommended agronomic practices were followed. All the treatments were applied by Soil drenching. Also, no urea or any other chemical fertilizer was applied in the trial and in the previous crop. Thus, the parts where compositions of the present invention were applied were free of chemical nutrient for over a year.

NC(N)=O [Urea]
Protein content of Groundnut Seeds %: 48.884%
